# Measurements taken from ChEMBL document CHEMBL6182936, “Discovery of KDX1381, a Bivalent CK2α Inhibitor for the Treatment of Solid Tumors as a Single Agent or in Combination” (J Med Chem, 2025).
# Active and inactive are the calls of the source. The rule behind the calls is not given here.
# Legend:
# [1] = test system: 786-0; test: cells; conditions: Homo sapiens, 786-0, 72 h
# [2] = physchem; conditions: PBS buffer, pH 7.4
# [3] = test system: 786-0; test: cells; conditions: Homo sapiens, 786-0, 72 h, read-out: Activity
# [4] = test system: HCT-116; test: cells; conditions: Homo sapiens, HCT-116, 72 h, read-out: Activity
# [5] = in vitro; conditions: mouse, hepatocytes
# [6] = test system: Hep 3B2; test: animal or person; conditions: Mus musculus, Hep3B, po, read-out: TGI
# [7] = test system: 786-0; test: cells; conditions: Homo sapiens, 786-0, 72 h, read-out: Activity; remark: listed apart in the source
# [8] = test system: 786-0; test: cells; conditions: Homo sapiens, 786-0, 72 h, read-out: Activity; remark: listed apart in the source
# [9] = test system: 786-0; conditions: Homo sapiens, dose 20.0 mg/kg, route po, time 28.0 day
# [10] = in vivo; conditions: CD-1, mouse, iv, 1 mg/kg
# [11] = in vivo; conditions: CD-1, mouse, iv, 1 mg/kg; remark: listed apart in the source
# [12] = test system: 786-0; test: animal or person; conditions: Mus musculus, 786-0, 384 h, read-out: TGI
# [13] = test system: Hep 3B2; test: animal or person; conditions: Mus musculus, Hep3B, po, read-out: TGI; remark: listed apart in the source
# [14] = animal or person; conditions: Homo sapiens, SF767, po, 1152 h, read-out: TGI
# [15] = in vivo; conditions: CD-1, mouse, ip, 40 mg/kg
# [16] = test system: Hep 3B2; test: animal or person; conditions: Mus musculus, Hep3B, po, read-out: TGI; remark: listed apart in the source
# [17] = in vivo; conditions: CD-1, mouse, iv, 1 mg/kg; remark: listed apart in the source
# [18] = physchem; conditions: PBS buffer, pH 7.4; remark: listed apart in the source
# [19] = in vivo; conditions: CD-1, mouse, ip, 40 mg/kg; remark: listed apart in the source
# [20] = test system: A-375; conditions: Homo sapiens, dose 5-40 mg/kg, route ip
# [21] = in vivo; conditions: CD-1, mouse, ip, 40 mg/kg; remark: listed apart in the source
# [22] = physchem; conditions: NCl, pH 1.2
# [23] = physchem; conditions: FaSSIF, pH 6.5
# [24] = in vivo; conditions: CD-1, mouse, ip, 40 mg/kg; remark: listed apart in the source
# [25] = test system: 786-0; test: cells; conditions: Homo sapiens, 786-0, 72 h, read-out: Activity; remark: listed apart in the source
# [26] = animal or person; conditions: Homo sapiens, SF767, po, 1152 h, read-out: TGI; remark: listed apart in the source
# [27] = test system: SK-BR-3; test: cells; conditions: Homo sapiens
# [28] = test system: 786-0; test: cells; conditions: Homo sapiens
# [29] = test system: 786-0; test: cells; conditions: Homo sapiens; remark: listed apart in the source
# [30] = physchem
# [31] = test system: SK-BR-3; test: cells; conditions: Homo sapiens; remark: listed apart in the source
# [32] = animal or person; conditions: Homo sapiens, SF767, po, 1152 h, read-out: TGI; remark: listed apart in the source
smiles,measurement,setting,value
CC(=O)c1[nH]c2ccc(F)cc2c1-c1cn(CC2CCN(CCNS(=O)(=O)c3ccc(-c4c(O)cccc4F)c(Cl)c3)CC2)nn1,IC50,[1],> 10 µM
same,solubility at 24 h,[2],< 0.5 µg/mL
O=C(O)c1ccc2c(c1)nc(Nc1cccc(Cl)c1)c1ccncc12 [SILMITASERTIB],viability at 10 µM,[3],93.5%
same,viability at 10 µM,[4],69.2%
COc1cccc(OC)c1-c1ccc(S(=O)(=O)NCCN2CCC(Cn3cc(-c4c(C(C)=O)[nH]c5ccc(F)cc45)nn3)CC2)cc1,IC50,[1],> 10 µM
same,solubility at 24 h,[2],8 µg/mL
same,remaining at 0.5 h,[5],67%
CNC(=O)c1cc(Oc2ccc(NC(=O)Nc3ccc(Cl)c(C(F)(F)F)c3)cc2)ccn1 [SORAFENIB],inhibition in vivo at 40 mg/kg,[6],29%
same,viability at 4.5 µM,[7],88%
CC(C)Cc1ccc(S(=O)(=O)NCCN2CCC(Cn3cc(-c4c[nH]c5ccccc45)nn3)CC2)cc1,IC50,[1],5.9 µM
same,solubility at 24 h,[2],2.7 µg/mL
same,remaining at 0.5 h,[5],18%
CC(=O)c1[nH]c2ccc(F)cc2c1-c1cn(CC2CCN(CCNS(=O)(=O)c3ccc(-c4c(O)cccc4F)c(C)c3)CC2)nn1,IC50,[1],6.6 µM
same,solubility at 24 h,[2],3.4 µg/mL
same,remaining at 0.5 h,[5],27%
CC(=O)c1[nH]c2ccc(F)cc2c1-c1cn(CC2CCN(CCNS(=O)(=O)c3ccc(-c4ccccc4O)cc3)CC2)nn1,IC50,[1],0.9 µM
same,solubility at 24 h,[2],18.5 µg/mL
same,remaining at 0.5 h,[5],46%
CC(C)Cc1ccc(S(=O)(=O)NCCN2CCC(Cn3cc(-c4c(C(=O)C5CC5)[nH]c5ccc(F)cc45)nn3)CC2)cc1,IC50,[1],> 10 µM
same,solubility at 24 h,[2],< 0.5 µg/mL
CC(=O)c1[nH]c2ccc(F)cc2c1-c1cn(CC2CCN(CCNS(=O)(=O)c3ccc(-c4c(O)cccc4F)cc3)CC2)nn1,viability at 1 µM,[8],90.4%
same,viability at 10 µM,[3],12.7%
same,IC50,[1],0.8 µM
same,TGI,[9],Active
same,Vd at 24 h,[10],5.9 L/kg
same,half-life at 24 h,[11],1.13 h
same,inhibition in vivo at 40 mg/kg,[12],90%
same,inhibition in vivo at 30 mg/kg,[13],95%
same,inhibition in vivo at 40 mg/kg,[14],77%
same,Tmax at 24 h,[15],1.33 h
same,inhibition in vivo at 30 mg/kg,[16],74%
same,clearance at 24 h,[17],60.5 mL/min/kg
same,solubility,[18],1.7 µg/mL
same,Cmax at 24 h,[19],2700 ng/mL
same,TGI,[20],Active
same,solubility at 24 h,[2],10.7 µg/mL
same,bioavailability at 24 h,[21],> 100%
same,remaining at 0.5 h,[5],42%
same,viability at 10 µM,[4],85.1%
same,solubility,[22],28.2 µg/mL
same,solubility,[23],> 100 µg/mL
same,AUC(0-inf) at 24 h,[24],8640 ng·h/mL
same,viability at 1 µM,[25],25%
same,inhibition in vivo at 40 mg/kg,[26],103%
CC(C)Cc1ccc(S(=O)(=O)NCCN2CCC(Cn3cc(-c4c[nH]c5ccc(F)cc45)nn3)CC2)cc1,IC50,[1],6.8 µM
same,solubility at 24 h,[2],1.5 µg/mL
same,remaining at 0.5 h,[5],25%
COc1cccc(F)c1-c1ccc(S(=O)(=O)NCCN2CCC(Cn3cc(-c4c(C(C)=O)[nH]c5ccc(F)cc45)nn3)CC2)cc1,IC50,[1],> 10 µM
same,solubility at 24 h,[2],5.4 µg/mL
same,remaining at 0.5 h,[5],48%
COc1cccc(OC)c1-c1ccc(S(=O)(=O)NCCN2CCC(Cn3cc(-c4c(C(C)=O)[nH]c5ccc(F)cc45)nn3)CC2)cc1C,IC50,[1],1.7 µM
same,solubility at 24 h,[2],1.9 µg/mL
same,remaining at 0.5 h,[5],44%
COc1ccccc1-c1ccc(S(=O)(=O)NCCN2CCC(Cn3cc(-c4c(C(C)=O)[nH]c5ccc(F)cc45)nn3)CC2)cc1C,IC50,[1],2.9 µM
CC(=O)c1[nH]c2ccc(F)cc2c1-c1cn(CC2CCN(CCNS(=O)(=O)c3ccc(-c4c(O)cccc4Cl)cc3)CC2)nn1,IC50,[1],3.3 µM
same,solubility at 24 h,[2],< 0.5 µg/mL
CC(=O)c1[nH]c2ccc(F)cc2c1-c1cn(CC2CCN(CCNS(=O)(=O)c3ccc(-c4cccc5ccsc45)cc3)CC2)nn1,IC50,[1],> 10 µM
CC(C)COC(=O)c1[nH]c2ccc(F)cc2c1-c1cn(CC2CCN(CCNS(=O)(=O)c3ccc(CC(C)C)cc3)CC2)nn1,IC50,[27],8.9 µM
same,IC50,[28],14.8 µM
same,IC50,[29],14.8 µM
same,IC50,[1],> 10 µM
same,solubility,[30],< 0.5 µg/mL
same,solubility at 24 h,[2],< 0.5 µg/mL
same,remaining at 0.5 h,[5],< 10%
same,IC50,[31],8.9 µM
CC(C)Cc1ccc(S(=O)(=O)NCCN2CCC(Cn3cc(-c4c(C(=O)C(C)C)[nH]c5ccc(F)cc45)nn3)CC2)cc1,IC50,[1],> 10 µM
same,solubility at 24 h,[2],0.9 µg/mL
same,remaining at 0.5 h,[5],15%
COc1cc(S(=O)(=O)NCCN2CCC(Cn3cc(-c4c(C(C)=O)[nH]c5ccc(F)cc45)nn3)CC2)ccc1-c1c(O)cccc1F,IC50,[1],> 10 µM
same,solubility at 24 h,[2],3.2 µg/mL
same,remaining at 0.5 h,[5],39%
CC(=O)c1[nH]c2ccc(F)cc2c1-c1cn(CC2CCN(CCNS(=O)(=O)c3ccc(CC(C)C)cc3)CC2)nn1,IC50,[1],3.2 µM
same,solubility at 24 h,[2],10.4 µg/mL
same,remaining at 0.5 h,[5],53%
CSc1ccccc1-c1ccc(S(=O)(=O)NCCN2CCC(Cn3cc(-c4c(C(C)=O)[nH]c5ccc(F)cc45)nn3)CC2)cc1C,IC50,[1],> 10 µM
same,solubility at 24 h,[2],< 0.5 µg/mL
same,remaining at 0.5 h,[5],26%
CCOC(=O)c1[nH]c2ccc(F)cc2c1-c1cn(CC2CCN(CCNS(=O)(=O)c3ccc(CC(C)C)cc3)CC2)nn1,IC50,[1],> 10 µM
same,solubility at 24 h,[2],< 0.5 µg/mL
same,remaining at 0.5 h,[5],< 10%
CC(=O)c1[nH]c2ccc(F)cc2c1-c1cn(CC2CCN(CCNS(=O)(=O)c3ccc(-c4c(O)cccc4F)c(C#N)c3)CC2)nn1,solubility at 24 h,[2],25.5 µg/mL
Cn1nnc2c(C(N)=O)ncn2c1=O [TEMOZOLOMIDE],inhibition in vivo at 20 mg/kg,[32],67%
CC(=O)c1[nH]c2ccc(F)cc2c1-c1cn(CC2CCN(CCNS(=O)(=O)c3ccc(-c4c(O)cccc4F)c(C(F)(F)F)c3)CC2)nn1,IC50,[1],3.6 µM
same,solubility at 24 h,[2],1.1 µg/mL
same,remaining at 0.5 h,[5],< 10%
CC(=O)c1[nH]c2ccc(F)cc2c1-c1cn(CC2CCN(CCNS(=O)(=O)c3ccc(-c4c(F)cccc4C(F)(F)F)cc3)CC2)nn1,IC50,[1],> 10 µM
same,solubility at 24 h,[2],< 0.5 µg/mL
